Test results as given in patent US20120082626A1, “USE OF R-BAMBUTEROL AS INHALED MEDICAMENT AND COMBINATION THERAPIES FOR TREATMENT OF RESPIRATORY DISORDERS” (priority 2009, published 2012).
“Also recorded” adds a separate entry of the source. Marks after values point to notes of the source that are not given here.

Tests used:
[1] = system: OVA evoked asthma in sensitized guinea pigs; experiment: Airway resistance and dynamic pulmonary compliance after inhalation in OVA sensitized guinea pigs; format: in vivo; details: for change of Raw and Cdyn at resting state after inhalation: before OVA challenge; for protection against asthma attack by antigen (OVA) challenge: pretreatment by inhalation about three minutes before OVA challenge
Protocol: Sensitization of animals: Ovalbumin (10 μg/ml) was injected into guinea-pigs subcutaneously and coincidentally with an intraperitoneal injection of B. pertussis vaccine. Identical injection of ovalbumin and adjuvant were made day 15 and 21 days later. On day 28th the animals were examined and used for studies.
Test Methods: The sensitized guinea pigs wer anaethetized. A cannula was inserted into the trachea. A plueral cannula was inserted into pleural space through the chest wall. Airway resistance (Raw) and dynamic pulmonary compliance (Cdyn) were measured by using the signals of intraplueral pressure, airflow and tidal volume.
The animals were restreined in closed chamber and nebulized R-bambuterol or S-bambuterol were inhaled at the dose of 126 μg/kg. After three minutes conditioning, the animals were then challenged with nebulized OVA to evoke asthma. Airway resistance (Raw) and dynamic pulmonary compliance (Cdyn) were measured before and after evoking asthma.

[2] = system: histamine evoked asthma in conscious guinea-pigs; experiment: Protection against histamine-evoked asthma by inhaled drug in conscious guinea pigs; format: in vivo, guinea pigs (Dunkin-Hartley strain); details: for Latency: no collapse over 360 sec recorded as 360
Protocol: (§1) Test methods: Guinea pigs (Dunkin-Hartley strain, 200±30 g) were fasted overnight but given water ad libidum. The animals were restrained individually in a glass chamber and exposed to aerosol histamine generated by a nebulizer from a 0.2% aqueous solution of histamine under constant pressure at dose of 0.5 ml/min for a period of 15 sec. The animal was removed from the chamber, and its behavior was monitored. Assign of collapse and the latency time from exposure to collapse were recorded. Only the animals with latency time less than 120 sec, as an indication of sensitive to histamine, were chosen for later experiments. The animals chosen were allowed to recover completely by resting for 24 hours before experiments. R-bambuterol and racemic bambuterol hydrochloride were dissolved in saline and nublized in a nebulizer.
Study of dose-response: One hours before the exposure to aerosol histamine, animals were randomized into groups (n=8, equal sex), and Nublized R-bambuterol hydrochloride or bambuterol hydrochloride in doses of 63, 126, 252 and 504 μg/kg, and vehicle control were inhaled by the animals via a mouth and nasal mask. The numbers of collapsed animal as a result of asthmatic reaction to aerosol histamine were counted, and the latency times were recorded. Both of these parameters were used as quantitative measurements of the protective effects of the treatments on bronchospasm evoked by aerosol histamine.

[3] = system: OVA evoked asthma in sensitized guinea pigs; experiment: Airway resistance in OVA asthma attack after oral administration in sensitized guinea pigs; format: in vivo
Protocol: Sensitized animals were divided into Saline (control), S-Bambuterol and R-bambuterol groups. R or S bambuterol were administered by both inhalation by oral ([…]). Airway resistance (Raw) and dynamic pulmonary compliance (Cdyn) were measured at resting or during astham challenge by OVA. Animal preparation and experimental methods were similar as described previously.

[4] = system: histamine evoked asthma in conscious guinea-pigs; experiment: Histamine-evoked asthma in conscious guinea pigs after oral administration; format: in vivo, guinea pigs (Dunkin-Hartley strain); details: for Latency: no collapse over 360 sec recorded as 360
Protocol: as §1
Comparison of the anti-asthma effects of R-bambuterol (R-BM) and bambuterol (RS-BM) administered by oral and by inhalation in conscious guinea pigs. Test methods: same as Example 1.
Study of dose-response: Same as Example 1, except the following: four hours before the exposure to aerosol histamine, animals were randomized into groups (n=8, equal male and female), and given R-bambuterol hydrochloride or racemic bambuterol hydrochloride in doses of 1.0, 2.0, 4.0 and 8.0 mg/kg, and vehicle control, orally via a stomach tube.

[5] = system: OVA evoked asthma in sensitized guinea pigs; experiment: Drug tolerance to R-bambuterol induced by pretreatment; format: in vivo; details: for Changes in Cdyn During asthma / Changes in Raw During asthma: OVA challenge, n=8
Protocol: Animal sensitization and experiment methods were similar as discribed above. Briefly, animals were divided into three groups. R-bambuterol (8 mg/kg) or S-bamburerol (8 mg/kg) or 0.9% NaCL (control) were given orally in equal volum to each group seperatedly once a day for 7 consecutive days in order to induce drug tolerances. The Protection effects of same dosage of R-bambuterol against asthma attack induced by OVA challenge were evaluated by the changes of Airway resistance (Raw) and dynamic pulmonary compliance (Cdyn).

[6] = system: histamine evoked asthma in conscious guinea-pigs; experiment: Time course of anti-asthma effects after oral administration or inhalation; format: in vivo; details: for No. of collapsed: n=8
Protocol: The time course of the anti-asthma effects of R-bambuterol (R-BM) and bambuterol (RS-BM) after administered by oral and by inhalation. Test Methods: same as example 1 except the following:
For orally administration, R-Bambuterol hydrochloride or racemic bambuterol hydrochloride at 4 and 8 mg/kg, and vehicle alone, were administered to the guinea pigs orally via a stomach tube. Exposure of treated animals to aerosol histamine (as above) was done at 1, 4 and 12 hours after R-bambuterol or bambuterol treatment. For each experimental group, there were a total of 8 animals with equal number in sex, and no repeated exposure was made for individual experimental animals.
For inhalation, R-Bambuterol hydrochloride or racemic bambuterol hydrochloride at 0.252 and 0.504 mg/kg, and vehicle alone, were nebulized and administered to the guinea pigs by inhalation. Exposure of drug treated animals to aerosol histamine (as above) was done at 1,4 and 12 hours after drug treatment. For each experimental group, there were a total of 8 animals with equal number in sex, and no repeated exposure was made for individual experimental animals.

[7] = oral; cited from earlier work
[8] = inhale, at maximum effective dose (R-BM 0.252, RS-BM 0.505 mg/Kg)
[9] = oral, at maximum effective dose (R-BM 4.0, RS-BM 8.0 mg/Kg)
[10] = pretreated with the labelled substance 8 mg/kg orally once a day 7 days, then R-bambuterol
[11] = saline pretreated group, protection by R-bambuterol
[12] = inhalation (R-BM 252 μg/kg, RS-BM 504 μg/kg), histamine 60 min after
[13] = inhalation (R-BM 252 μg/kg, RS-BM 504 μg/kg), histamine 240 min after
[14] = inhalation (R-BM 252 μg/kg, RS-BM 504 μg/kg), histamine 720 min after
[15] = oral (R-BM 4.0 mg/kg, RS-BM 8.0 mg/kg), histamine 60 min after
[16] = oral (R-BM 4.0 mg/kg, RS-BM 8.0 mg/kg), histamine 240 min after
[17] = oral (R-BM 4.0 mg/kg, RS-BM 8.0 mg/kg), histamine 720 min after

In the case of `CN(C)C(=O)Oc1cc(OC(=O)N(C)C)cc([C@@H](O)CNC(C)(C)C)c1` [R-bambuterol], the “change of Raw and Cdyn at resting state after inhalation” value [1] is reported as “reduced airway resistance and enhanced pulmonary dynamic compliance”, the “change of Raw and Cdyn at resting state after inhalation” value ([1]; listed as R-Bambuterol) is reported as “no significant changes both in Raw and Cdyn” and the “protection against asthma attack by antigen (OVA) challenge” value [1] is reported as “significant anti-asthma effects; also recorded: fully protection against the asthma attack”. The “protection against asthma attack by antigen (OVA) challenge” value ([1]; listed as R-BM) was “full protection”, the “dosage required for maximum anti-asthmatic effects (complete protection against histamine) by inhalation” value ([2]; inhalation) was 256 µg/kg and the “maximum effective dose required by inhalation” value ([2]; inhale) was “Inhale (0.252) mg/Kg”. For the same compound, the “Animal collapsed (%)” value [2, 8] was 0%, the “Animal collapsed (number/group)” value [2, 8] was 0/8 and the Latency ([2]; inhaled 63 μg/Kg) was 95 ± 108 s. It also gave a Latency ([2]; inhaled 126 μg/Kg) of 243 ± 161 s, a Latency ([2]; inhaled 252 μg/Kg) of 360 ± 0 s and a Latency ([2]; inhaled 504 μg/Kg) of 360 ± 0 s. For the same compound, the “potency relative to bambuterol” value ([2]; inhaled aerosols, histamine evoked asthma) was “about twice”, the “Oral:Inhale ratio of maximum effective dose” value ([2]; oral dose vs inhaled dose for maximum anti-asthmatic effect, listed as R-bamubuterol) was 16 and the “change in Raw / asthmatic response during the asthmatic attack by OVA” value ([3]; oral) was “little changes in Raw”. The “Changes in Airway resistance (Raw) at 4th min after OVA challenge” value ([3]; pretreated oral 4 m/kg, n=8) was 0.14 ± 0.13, the “Changes in Airway resistance (Raw) at 5th min after OVA challenge” value ([3]; pretreated oral 4 m/kg, n=8) was 0.11 ± 0.08 and the “maximum effective dose required by oral (none of the histamine challenged animals collapsed)” value ([4]; oral) was 4 mg/kg. For the same compound, the Latency ([4]; oral 1.0 mg/Kg) was 179 ± 151 s, the Latency ([4]; oral 2.0 mg/Kg) was 295 ± 121 s and the “(Collapsed)/No. in group” value ([4]; oral 4.0 mg/Kg, four hours before aerosol histamine, n=8) was 0/8**^▴▴. For the same compound, the Latency ([4]; oral 4.0 mg/Kg) was 360 ± 0 s, the Latency ([4]; oral 8.0 mg/Kg) was 360 ± 0 s and the “Animal collapsed (%)” value [4, 9] was 0%. For the same compound, the “Animal collapsed (number/group)” value [4, 9] was 0/8, the “maximum effective dose required by oral (none of the histamine challenged animals collapsed)” value ([4]; oral, listed as R-BM) was “Oral (4.0) mg/Kg” and the “protection effects of R-bambuterol against asthmatic attack after pretreatment” value ([5]; group pretreated with the labelled substance) was “less than control but no significant differences”. The “Changes in Cdyn During asthma” value [5, 10] was −0.11 ± 0.08, the “Changes in Raw During asthma” value [5, 10] was “+0.13 ± 0.09” and the “protection against asthma attack in control group” value ([5]; saline pretreated control group) was “fully protect against asthma attack”. For the same compound, the “Changes in Cdyn During asthma” value [5, 11] was −0.08 ± 0.06^•, the “Changes in Raw During asthma” value [5, 11] was “+0.09 ± 0.03^•” and the Latency [6, 12] was 360 ± 0 s. For the same compound, the No. of collapsed [6, 12] was 0/8, the Latency [6, 13] was 360 ± 0 s and the No. of collapsed [6, 13] was 0/8. The Latency [6, 14] was 330 ± 84 s, the No. of collapsed [6, 14] was 1/8 and the “maximum anti-asthmatic effects by inhalation faster than by oral administration” value ([6]; inhalation vs oral) was 4 h. The Latency [6, 15] was 258 ± 141 s, the No. of collapsed [6, 15] was 3/8 and the Latency [6, 16] was 360 ± 0 s. For the same compound, the No. of collapsed [6, 16] was 0/8, the Latency [6, 17] was 285 ± 129 s and the No. of collapsed [6, 17] was 2/8. For the same compound, the “time of maximum concentration (tmax)” value [7] was “around one”.
